Results as given in patent publication US11384115B2, “Nuclear sulfated oxysterol, potent regulator of lipid homeostasis, for therapy of hypercholesterolemia, hypertriglycerides, fatty liver diseases, and atherosclerosis” (Virginia Commonwealth University, priority 2004, dated 2022).

Legend:
HMG CoA reductase mRNA [1] = assay: HMG CoA reductase mRNA by real-time RT-PCR in HepG2 cells; format: cell-based, human; conditions: for inhibition of HMG CoA reductase mRNA: HepG2, lipid-depleted serum media
Experimental: HepG2 cells were grown in MEM containing non-essential amino acids, 0.03M NaHCO3, 10% FBS, 1 mM L-glutamine, 1 mM sodium pyruvate and 1% Pen/Strep and incubated at 37° C. in 5% CO2. When cells reached at ˜90% confluency, the oxysterols in DMSO or in ethanol (final concentration, 0.1%) and/or [1-^14C]acetate for cholesterol synthesis was added or otherwise as indicated. Microsomal and cytosol fractions were isolated from broken cells as described previously (10).
(§1) Total RNA was isolated from HepG2 cells using SV Total RNA Isolation Kit (Promega). Two μg of total RNA was used for first-strand cDNA synthesis as recommended by manufacture (Invitrogen). Real-time PCR was performed using SYBR Green on ABI 7500 Fast Real-Time PCR System (Applied Biosystems). The final reaction mixture contained 5 ng of cDNA, 100 nM of each primer, 10 μl of 2×SYBR® Green PCR Master Mix (Applied Biosystems), and RNase-free water to complete the reaction mixture volume to 20 μl. All reactions were performed in triplicate. The PCR was carried out for 40 cycles at 95° C. for 15 s and 60° C. for 1 min. The fluorescence was read during the reaction, allowing a continuous monitoring of the amount of PCR product. The data was normalized to internal control-β-actin or GAPDH mRNA. The sequences of primers for HMG CoA reductase used in real-time PCR are […] (SEQ ID NO: 1) (Forward) and […] (SEQ ID NO: 2) (Reverse).

PPARγ mRNA = PPARγ mRNA by real time RT-PCR in macrophages; format: cell-based, human
Experimental: Total RNA was isolated from THP-1 derived macrophages following treatments for 6 hrs otherwise as indicated using SV Total RNA Isolation Kit (Promega, Wisconsin, Wis.), which includes DNase treatment. Two microgram of total RNA was used for first-strand cDNA synthesis as recommended by manufacturer (Invitrogen, Carlsbad, Calif.). Real-time RT-PCR was performed using SYBR Green as indicator on ABI 7500 Fast Real-Time PCR System (Applied Biosystems, Foster City, Calif.). The final reaction mixture contained 10 ng of cDNA, 100 nM of each primer, 10 μl of 2×SYBR® Green PCR Master Mix (Applied Biosystems, Foster City, Calif.), and RNase-free water to complete the reaction mixture volume to 20 μl. All reactions were performed in triplicate. PCR was carried out for 40 cycles of 95° C. for 15 s and 60° C. for 1 min. The fluorescence was read during the reaction, allowing a continuous monitoring of the amount of PCR product. The data was normalized to internal control GAPDH.

SREBP-1 = assay: Western blot of SREBP-1 activation in HepG2 cells; format: cell-based, human; conditions: for mature forms of SREBP-1: HepG2, dose dependent
Experimental: FIGS. 18A-18D. Western blot analysis of SREBPs activation following 25HC3S or 25HC treatment in HepG2 cells. […] SREBP-1 and SREBP-2 protein levels in the cells were determined by Western blot analysis. The extracted protein (100 μg) was loaded onto each lane for each condition as indicated. The data represent a typical result from one of three independent experiments. The trends of the protein levels are highly reproducible.
Microsomal proteins (80 μg) were separated on a 7.5% SDS-polyacrylamide denaturing gel according to the method of Laemmli (14). Following SDS-PAGE (Hoefer Vertical Slab Gel Unit; Heofer, San Francisco, Calif.), proteins were electrophoretically transferred overnight (4° C.) to Immobilon-P membranes using a Hoefer Trans Blot Electrophoretic Transfer cell. The membranes were then blocked for 90 minutes (25° C.) in blocking buffer (PBS, pH 7.4, 0.1% Tween, 5% non-fat dry milk). Proteins were then incubated for 90 minutes (25° C.) or overnight (4° C.) with a rabbit polyclonal IgG (1:2500-1:20,000) against human SREBP-1, SREBP-2, or HMG CoA reductase. After washing, a secondary antibody (goat anti-rabbit IgG-Horse-radish peroxidase conjugate, 1:2500) was added to the blocking solution (25° C., 90 minutes). Protein bands were detected using the Amersham ECL plus Kit.

IκB = IκB mRNA (RT-PCR) and protein (Western blot) in THP-1 macrophages; format: cell-based, human; conditions: for IκB protein levels: Western blot, 24 hrs; for increase of IκB mRNA levels: macrophages; for IκB mRNA level: real time RT-PCR, 6 hrs
Experimental: FIG. 25A-C. […] The Western blot data represents one of three experiments.
Fifty μg of total cell lysates or nuclear protein extracts, otherwise as indicated, were separated on 10% SDS-PAGE gels and transferred onto a polyvinylidene difluoride membrane as described previously [31]. Membranes were blocked in TBS containing 5% of nonfat dried milk for 1 hr. The specific proteins were determined by incubation with specific antibodies against human PPAR or IκB overnight at 4° C. with shaking. After washing, the membrane was incubated in a 1:3,000 dilution of a secondary antibody (goat anti-rabbit or anti-mouse IgG-HP conjugate; Bio-Rad, Hercules, Calif.) at room temperature for 1 hr in the washing buffer (Tris buffered solution containing 0.5% Tween 20). The protein bands were visualized using Western Lightening Chemiluminescence Reagent (Perkin-Elmer, Waltham, Mass.). The expression levels were normalized to Lamin.

HMG CoA reductase mRNA [2] = assay: HMG CoA reductase mRNA by real-time RT-PCR in primary human hepatocytes; format: cell-based; set-up: effect on levels of HMG CoA reductase mRNA: dose or concentration left out as unconfirmed; conditions: for inhibition of HMG CoA reductase mRNA: PHH cultured in serum-free media
Experimental: Primary human hepatocytes were purchased from an NIH-approved facility (Liver Tissue Procurement Distribution System, Univ. of Minnesota). Cells were obtained from a random sampling of males and females 18-69 yr of age. Experiments were performed as cells became available to corroborate findings in experiments conducted in HepG2 cells as previous described (13).
as §1

IL-1β and TNFα release = assay: ELISA analysis of LPS-induced cytokine releases from macrophages; format: cell-based, human; conditions: LPS 1 μg/ml, 24 hrs; for LPS-induced IL-1β release: concentration-dependent
Experimental: A total of 1×10^6 macrophages were treated with LPS (1 μg/ml) and/or different concentrations of 25HC or 25HC3S for 24 hrs. Supernatants were harvested and cytokines IL-1ß and TNF-α concentration were measured by enzyme-linked immunosorbent assay (ELISA) according to manufacturer's instruction (SuperArray Bioscience, Frederick Md.). SiRNA-mediated macrophage RNA interference

LXR = conditions: macrophages, cited from earlier work
[3] = HepG2, in the presence of serum

Compound | HMG CoA reductase mRNA (HMG CoA reductase mRNA [1]; HepG2, 10% FBS media) | inhibition of the mRNA of HMG CoA reductase and SREBP1 (HMG CoA reductase mRNA [1]; HepG2, at 12 μM) [%] | inhibition of HMG CoA reductase (HMG CoA reductase mRNA [1]; [3]) [%] | inhibition of HMG CoA reductase mRNA (HMG CoA reductase mRNA [1]) | PPARγ mRNA levels (PPARγ mRNA) | mature forms of SREBP-1 (SREBP-1) | inhibition of SREBP-1 activation (SREBP-1; HepG2, media containing 50 μM of mevinolin and 0.5 μM of mevalonate) | IκB protein levels (IκB) | increase of IκB mRNA levels (IκB; 12 μM) [folds] | increase of IκB mRNA levels (IκB; in the presence of TNFα) [folds] | IκB mRNA level (IκB) | inhibition of HMG CoA reductase mRNA (HMG CoA reductase mRNA [2]) [%] | LPS-induced release of TNFα (IL-1β and TNFα release) | LPS-induced IL-1β release (IL-1β and TNFα release) | LXR activities and its targeting gene expressions (LXR) | inhibition of the mRNA of HMG CoA reductase and SREBP1 (HMG CoA reductase mRNA [1]; HepG2, at 3 μM) [%] | inhibition of HMG CoA reductase (HMG CoA reductase mRNA [1]; HepG2, lipids depleted serum) [%] | effect on levels of HMG CoA reductase mRNA (HMG CoA reductase mRNA [2]; PHH, serum-free media) [%] | increase of LXR targeting gene expressions, ABCA1/G1 and SREBP-1 mRNAs (LXR; in 6 hrs)
C[C@H](CCCC(C)(C)O)[C@H]1CC[C@H]2[C@@H]3CC=C4C[C@@H](OS(=O)(=O)O)CC[C@]4(C)[C@H]3CC[C@]12C [25HC3S, 5-cholesten-3β, 25-diol 3-sulphate] | concentration dependent decreases | 85 | 70 | still strongly inhibits | neither 25HC nor 25HC3S was able to change | decreases | more potent inhibition on SREBP-1 activation than 25HC | increased | 2.5 | 6 | significantly increased | 75 | represses | significantly decreased | decreases | – | – | – | –
C[C@H](CCCC(C)(C)O)[C@H]1CC[C@H]2[C@@H]3CC=C4C[C@@H](O)CC[C@]4(C)[C@H]3CC[C@]12C [25HC, 25-hydroxycholesterol, reference compound] | – | – | 70 | more potent inhibition than 25HC3S | neither 25HC nor 25HC3S was able to change | decreases | – | decreased | – | – | no significantly changed | 15 | – | increased | – | 85 | 90 | ~15 | 5-50 fold
